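Step 1: Grow cells in 96-well plates. Step 2: Expose to compound for 48 hours at 5 concentrations. Step 3: Interpolate endpoints linearly; if unreached, use highest concentration. TGI marks complete inhibition of growth.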
Assays:
Experiment in all cases: DTP human tumour cell line panel, 48 h
M14 melanoma = tested on: M14 melanoma
HS 578T breast = tested on: HS 578T breast
UACC-62 melanoma = tested on: UACC-62 melanoma
A549 NSCLC = tested on: A549 NSCLC
NCI-H460 lung = tested on: NCI-H460 lung
SR leukemia = tested on: SR leukemia
BT-549 breast = tested on: BT-549 breast
HCT-15 colon = tested on: HCT-15 colon
HCT-116 colon = tested on: HCT-116 colon
SF-295 CNS = tested on: SF-295 CNS
LOX IMVI melanoma = tested on: LOX IMVI melanoma
SN12C renal = tested on: SN12C renal
SNB-19 CNS = tested on: SNB-19 CNS
TK-10 renal = tested on: TK-10 renal
COLO 205 colon = tested on: COLO 205 colon
786-0 renal = tested on: 786-0 renal
MDA-N = tested on: MDA-N
MOLT-4 leukemia = tested on: MOLT-4 leukemia
KM12 colon = tested on: KM12 colon

SMILES | TGI (M14 melanoma) [µM] | TGI (HS 578T breast) [µM] | TGI (UACC-62 melanoma) [µM] | TGI (A549 NSCLC) [µM] | TGI (NCI-H460 lung) [µM] | TGI (SR leukemia) [µM] | TGI (BT-549 breast) [µM] | TGI (HCT-15 colon) [µM] | TGI (HCT-116 colon) [µM] | TGI (SF-295 CNS) [µM] | TGI (LOX IMVI melanoma) [µM] | TGI (SN12C renal) [µM] | TGI (SNB-19 CNS) [µM] | TGI (TK-10 renal) [µM] | TGI (COLO 205 colon) [µM] | TGI (786-0 renal) [µM] | TGI (MDA-N) [µM] | TGI (MOLT-4 leukemia) [µM] | TGI (KM12 colon) [µM]
CC1=NC2c3c(-c4ccc(Cl)cc4)cn(-c4ccc(C)cc4)c3N=CN2N1 (configuration not stated) | > 100 | 38.4 | > 100 | > 100 | > 100 | > 100 | > 100 | > 100 | > 100 | > 100 | > 100 | > 100 | > 100 | > 100 | > 100 | > 100 | > 100 |  | 
CCOC(=O)c1cc2c3c(c(C(C)=O)c(O)c2[nH]1)N(C(C)=O)CC3 | > 100 | > 100 | > 100 |  | > 100 | > 100 | > 100 | > 100 | > 100 | > 100 | > 100 | > 100 | > 100 | > 100 | > 100 | > 100 | > 100 | > 100 | > 100
COC(=O)[C@H](Cc1c[nH]c2ccccc12)NP(=O)(O)OC[C@H]1O[C@@H](n2cc(C)c(=O)[nH]c2=O)C[C@@H]1N=[N+]=[N-] | > 100 | > 100 | > 100 | > 100 | > 100 |  | > 100 | > 100 | > 100 | > 100 | > 100 | > 100 | > 100 | > 100 | > 100 | > 100 | > 100 | > 100 | > 100
O=C(SC1=NCCN1)c1cccc2ccccc12 | > 100 | > 100 | > 100 | > 100 | > 100 |  | > 100 | > 100 | > 100 | > 100 | > 100 | > 100 | > 100 | > 100 | > 100 | > 100 | > 100 | 43.2 | > 100
COc1cc(/C=N\c2nc(-c3ccc(NS(=O)(=O)c4ccc(Cl)c(OC)c4)cc3)cs2)ccc1O | > 100 | > 100 | 36.5 | > 100 |  | > 100 | 83 | > 100 | > 100 | > 100 | > 100 | > 100 | > 100 |  | > 100 | > 100 | > 100 | > 100 | > 100
CCOC(=O)CCSc1nc2ccc(I)cc2c(=O)n1Cc1ccccc1 | > 100 | > 81.9 | > 93.5 | > 100 | > 100 | 29.5 | > 94.4 | > 77.7 | > 74.2 | > 73.3 | > 77.3 | > 100 | > 100 | > 88.2 | 26.9 | > 96.8 | > 86.7 |  | > 100
O=c1/c(=C/c2ccc([N+](=O)[O-])o2)sc2n1[C@@H](c1ccc(Cl)cc1)C=C(c1cc(F)c(Cl)cc1Cl)N=2 | 29.1 | > 100 | 29.2 | 86.9 | 24.3 |  | 28.7 | 26.7 | 18.3 | 72.4 | 33.6 | 19.5 | 33.6 | 36.2 | 16.2 | 20.7 | 23.3 | 45.9 | > 100
O=C(OCc1ccc([N+](=O)[O-])cc1)N1c2ccccc2[C@@]23O[C@]24CCC[C@H]3C#C/C=C\C#C[C@H]14 | > 100 | > 100 | > 100 | > 100 | > 100 |  | > 100 | > 100 | > 100 | > 100 | > 100 | > 100 | > 100 | > 100 | > 100 | > 100 | > 100 | > 100 | > 100
CCN(CC)CCN(C(=Nc1ccccc1)N1CCCCC1)c1ccccc1 | 21.7 | 27 |  | 45.2 | 24.8 | 23.6 | 47 | > 100 | 3.35 | 17.9 | 23.7 | 29 | > 100 | 97.8 | 13.1 | 85.9 | 11.2 | 25.2 | 23.9
CC1(C)C2CC(O)C1CCC2=O (configuration not stated) | > 100 | > 100 | > 100 | > 100 | > 100 |  | > 100 | > 100 | > 100 | > 100 | > 100 | > 100 | > 100 | > 100 | > 100 | > 100 | > 100 | > 100 | > 100
C[C@]12CC[C@H]3[C@@H](CC=C4C[C@@H](O)CC[C@@]43C)[C@@H]1C/C(=C/c1ccccc1)[C@@H]2O | > 77.8 | 98 | 56.5 | > 51.5 | > 100 | > 100 | 72.4 | > 100 | > 45.3 | > 65.9 | > 50.2 |  | > 56.5 | > 53.3 | 98.9 | > 51.9 | 65.5 | > 100 | > 78.8
CC1=NNC(=O)C1C1CC(c2c[nH]c3ccccc23)=NN(C(N)=O)C1=O (configuration not stated) | > 100 | > 100 | > 100 | > 100 | > 100 |  | > 100 | > 100 | > 100 | > 100 | > 100 | > 100 | > 100 | > 100 | > 100 | > 100 | > 100 | > 100 | 88.3
N#Cc1ccc(N2CCOCC2)cc1 | > 100 | > 100 | > 100 | > 100 | > 100 |  | > 100 | > 100 | > 100 | > 100 | > 100 | > 100 | > 100 | > 100 | > 100 | > 100 | > 100 | > 100 | > 100
